{
  "source": "ChEMBL document CHEMBL1201862",
  "about": "“PubChem BioAssay data set” (2004)",
  "key": {"Insulin-degrading enzyme": {"biological_target": "T1, Insulin-degrading enzyme (Homo sapiens, UniProt P14735)", "T1 sequence (P14735 whole entry)": "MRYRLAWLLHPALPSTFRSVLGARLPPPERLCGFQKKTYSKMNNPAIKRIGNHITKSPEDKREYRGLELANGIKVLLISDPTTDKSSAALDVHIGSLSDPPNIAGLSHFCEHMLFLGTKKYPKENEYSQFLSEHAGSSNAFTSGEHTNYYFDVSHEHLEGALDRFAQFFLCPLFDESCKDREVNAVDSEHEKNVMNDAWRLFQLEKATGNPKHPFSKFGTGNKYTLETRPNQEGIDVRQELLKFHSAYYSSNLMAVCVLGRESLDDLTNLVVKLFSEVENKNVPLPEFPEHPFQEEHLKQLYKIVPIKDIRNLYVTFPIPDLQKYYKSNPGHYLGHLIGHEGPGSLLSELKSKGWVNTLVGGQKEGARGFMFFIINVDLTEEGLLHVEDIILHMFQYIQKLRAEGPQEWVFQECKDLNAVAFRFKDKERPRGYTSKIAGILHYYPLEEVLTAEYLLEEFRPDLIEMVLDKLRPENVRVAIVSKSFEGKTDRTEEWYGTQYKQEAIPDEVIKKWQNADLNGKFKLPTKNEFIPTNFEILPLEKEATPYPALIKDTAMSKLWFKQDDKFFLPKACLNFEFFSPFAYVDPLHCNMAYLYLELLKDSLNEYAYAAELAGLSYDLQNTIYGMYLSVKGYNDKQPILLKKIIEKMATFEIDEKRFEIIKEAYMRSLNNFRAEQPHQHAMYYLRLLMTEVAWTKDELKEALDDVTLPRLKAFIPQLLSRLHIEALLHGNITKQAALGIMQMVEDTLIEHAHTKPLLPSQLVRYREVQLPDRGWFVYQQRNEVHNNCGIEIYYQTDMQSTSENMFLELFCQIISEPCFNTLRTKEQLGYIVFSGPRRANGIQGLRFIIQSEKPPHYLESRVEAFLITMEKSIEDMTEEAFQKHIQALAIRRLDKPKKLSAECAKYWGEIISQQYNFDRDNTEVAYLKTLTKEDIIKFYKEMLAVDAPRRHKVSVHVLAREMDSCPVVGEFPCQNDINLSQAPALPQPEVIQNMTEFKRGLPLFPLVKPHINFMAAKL", "assay": "Dose Response: Fluorescence polarization-based cell-based high throughput dose response assay for inhibitors of insulin-degrading enzyme (IDE). [Related pubchem assays: 434962 (Primary screen (IDE inhibitors in singlicate)), 449730 (Counterscreen (Cytotoxicity in triplicate)), 435028 (Confirmation (IDE inhibitors in triplicate)), 434984 (Summary …", "assay_type": "functional"}, "[1]": {"biological_target": "T2, RNA-binding protein pos-1 (Caenorhabditis elegans, UniProt G5EF15)", "T2 sequence (G5EF15 whole entry)": "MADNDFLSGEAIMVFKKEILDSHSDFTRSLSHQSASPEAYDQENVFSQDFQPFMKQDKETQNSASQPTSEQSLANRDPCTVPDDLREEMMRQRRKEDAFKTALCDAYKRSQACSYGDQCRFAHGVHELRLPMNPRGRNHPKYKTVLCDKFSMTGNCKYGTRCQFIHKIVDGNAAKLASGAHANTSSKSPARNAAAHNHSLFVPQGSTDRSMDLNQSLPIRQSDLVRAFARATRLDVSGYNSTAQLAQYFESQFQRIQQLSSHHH", "assay": "inhibitors of POS-1/mex-3 RNA binding, dose response, biochemical, fluorescence polarization (AID 1964);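 further: purified POS-1 fused to maltose binding protein made in E. coli; potency of compounds blocking POS-1 binding to fluorescent RNA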"}, "[2]": {"assay": "Counterscreen for IDE inhibitors: Luminescence-based cell-based high throughput dose response assay to identify compounds that are cytotoxic to HEK cells. [Related pubchem assays: 434962 (Primary screen (IDE inhibitors in singlicate)), 449730 (Counterscreen (Cytotoxicity in triplicate)), 435028 (Confirmation (IDE inhibitors in triplicate)) …", "assay_type": "functional", "conditions": "HEK293"}, "[3]": {"biological_target": "Peroxisome proliferator-activated receptor gamma/Nuclear receptor corepressor 2 (Homo sapiens, UniProt P37231+Q9Y618)", "sequence (P37231 whole entry)": "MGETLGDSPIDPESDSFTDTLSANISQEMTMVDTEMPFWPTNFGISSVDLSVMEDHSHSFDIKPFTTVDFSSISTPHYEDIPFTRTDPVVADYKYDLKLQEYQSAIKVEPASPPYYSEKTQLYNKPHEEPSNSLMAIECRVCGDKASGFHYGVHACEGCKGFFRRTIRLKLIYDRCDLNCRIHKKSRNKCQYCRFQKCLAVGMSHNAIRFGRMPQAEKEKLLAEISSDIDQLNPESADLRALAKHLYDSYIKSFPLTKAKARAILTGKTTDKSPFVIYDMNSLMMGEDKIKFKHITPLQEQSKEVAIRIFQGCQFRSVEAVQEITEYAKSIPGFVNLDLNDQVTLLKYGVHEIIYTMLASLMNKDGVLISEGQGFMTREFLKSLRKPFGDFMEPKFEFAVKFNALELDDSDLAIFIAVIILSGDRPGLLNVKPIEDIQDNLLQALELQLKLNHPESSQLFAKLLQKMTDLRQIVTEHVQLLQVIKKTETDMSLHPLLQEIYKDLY", "sequence (Q9Y618 whole entry)": "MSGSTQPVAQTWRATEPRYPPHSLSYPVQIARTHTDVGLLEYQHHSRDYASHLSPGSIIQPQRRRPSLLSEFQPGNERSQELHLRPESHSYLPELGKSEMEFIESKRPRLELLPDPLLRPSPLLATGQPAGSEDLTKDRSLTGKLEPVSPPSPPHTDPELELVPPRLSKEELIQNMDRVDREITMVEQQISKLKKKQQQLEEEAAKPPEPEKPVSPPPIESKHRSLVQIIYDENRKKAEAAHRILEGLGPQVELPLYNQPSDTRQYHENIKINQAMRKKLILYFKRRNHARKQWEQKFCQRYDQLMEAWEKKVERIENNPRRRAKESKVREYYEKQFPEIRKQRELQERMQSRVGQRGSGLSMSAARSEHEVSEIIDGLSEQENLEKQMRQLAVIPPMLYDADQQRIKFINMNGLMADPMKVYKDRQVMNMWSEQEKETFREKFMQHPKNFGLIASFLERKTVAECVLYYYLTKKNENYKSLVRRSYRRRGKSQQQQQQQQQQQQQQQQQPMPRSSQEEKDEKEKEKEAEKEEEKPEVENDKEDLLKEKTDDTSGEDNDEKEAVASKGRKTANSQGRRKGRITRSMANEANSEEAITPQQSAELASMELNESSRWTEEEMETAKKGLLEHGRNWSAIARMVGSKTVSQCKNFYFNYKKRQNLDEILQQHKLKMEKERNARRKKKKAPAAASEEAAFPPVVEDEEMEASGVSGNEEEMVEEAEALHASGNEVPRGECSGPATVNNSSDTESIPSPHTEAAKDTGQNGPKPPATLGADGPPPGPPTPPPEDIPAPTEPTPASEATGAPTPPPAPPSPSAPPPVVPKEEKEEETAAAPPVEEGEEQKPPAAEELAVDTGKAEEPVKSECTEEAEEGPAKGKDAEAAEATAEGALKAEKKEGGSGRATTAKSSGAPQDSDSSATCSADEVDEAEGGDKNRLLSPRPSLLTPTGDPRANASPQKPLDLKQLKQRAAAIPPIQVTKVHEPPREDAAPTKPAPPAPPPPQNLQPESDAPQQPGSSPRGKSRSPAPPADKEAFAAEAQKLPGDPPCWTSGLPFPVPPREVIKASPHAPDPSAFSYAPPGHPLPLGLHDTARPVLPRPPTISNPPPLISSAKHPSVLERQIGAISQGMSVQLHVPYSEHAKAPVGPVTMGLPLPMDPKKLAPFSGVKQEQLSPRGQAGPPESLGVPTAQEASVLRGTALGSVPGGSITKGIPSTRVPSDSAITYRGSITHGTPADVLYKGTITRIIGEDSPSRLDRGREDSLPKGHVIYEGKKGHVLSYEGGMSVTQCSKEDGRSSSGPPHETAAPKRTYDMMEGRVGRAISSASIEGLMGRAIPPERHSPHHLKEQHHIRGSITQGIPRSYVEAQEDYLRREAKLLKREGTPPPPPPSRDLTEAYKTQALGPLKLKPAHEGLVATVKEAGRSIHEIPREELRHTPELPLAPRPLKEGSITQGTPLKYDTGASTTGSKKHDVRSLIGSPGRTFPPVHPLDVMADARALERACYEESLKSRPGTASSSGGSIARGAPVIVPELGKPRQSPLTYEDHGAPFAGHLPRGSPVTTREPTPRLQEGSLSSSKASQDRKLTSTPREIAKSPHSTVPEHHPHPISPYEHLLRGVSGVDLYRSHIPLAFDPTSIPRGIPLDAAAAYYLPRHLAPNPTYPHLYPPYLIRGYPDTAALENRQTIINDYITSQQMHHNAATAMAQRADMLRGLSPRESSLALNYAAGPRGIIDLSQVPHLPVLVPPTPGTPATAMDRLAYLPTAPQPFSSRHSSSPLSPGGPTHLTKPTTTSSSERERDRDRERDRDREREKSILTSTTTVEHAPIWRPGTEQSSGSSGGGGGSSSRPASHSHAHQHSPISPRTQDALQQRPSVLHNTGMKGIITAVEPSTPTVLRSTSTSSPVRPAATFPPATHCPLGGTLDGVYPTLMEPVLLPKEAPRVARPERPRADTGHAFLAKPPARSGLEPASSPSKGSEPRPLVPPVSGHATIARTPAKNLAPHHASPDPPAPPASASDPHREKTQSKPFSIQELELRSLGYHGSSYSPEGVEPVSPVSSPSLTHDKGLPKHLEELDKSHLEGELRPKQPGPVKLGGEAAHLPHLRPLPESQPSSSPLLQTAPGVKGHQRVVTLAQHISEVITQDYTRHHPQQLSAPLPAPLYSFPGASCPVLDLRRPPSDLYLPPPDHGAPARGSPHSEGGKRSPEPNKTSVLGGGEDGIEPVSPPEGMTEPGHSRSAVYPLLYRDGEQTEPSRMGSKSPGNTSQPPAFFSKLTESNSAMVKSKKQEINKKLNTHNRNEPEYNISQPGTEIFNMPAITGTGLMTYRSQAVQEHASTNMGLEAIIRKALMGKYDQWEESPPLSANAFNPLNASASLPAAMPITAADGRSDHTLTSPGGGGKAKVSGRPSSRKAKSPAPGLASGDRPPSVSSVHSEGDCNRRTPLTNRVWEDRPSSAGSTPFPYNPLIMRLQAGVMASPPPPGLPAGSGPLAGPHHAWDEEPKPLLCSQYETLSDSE", "assay_type": "functional"}, "[4]": {"biological_target": "Photoreceptor-specific nuclear receptor (Homo sapiens, UniProt Q9Y5X4)", "sequence (Q9Y5X4 whole entry)": "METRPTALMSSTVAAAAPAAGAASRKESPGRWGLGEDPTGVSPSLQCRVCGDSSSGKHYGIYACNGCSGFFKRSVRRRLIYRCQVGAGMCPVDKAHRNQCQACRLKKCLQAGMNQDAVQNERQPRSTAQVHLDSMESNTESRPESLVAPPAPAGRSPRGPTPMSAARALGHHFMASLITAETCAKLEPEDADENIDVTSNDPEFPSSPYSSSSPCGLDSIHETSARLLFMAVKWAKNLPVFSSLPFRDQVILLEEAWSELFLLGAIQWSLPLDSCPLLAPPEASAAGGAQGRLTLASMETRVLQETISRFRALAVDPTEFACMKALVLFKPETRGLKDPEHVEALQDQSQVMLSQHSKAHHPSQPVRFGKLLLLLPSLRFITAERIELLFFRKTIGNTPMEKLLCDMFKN", "assay_type": "functional"}, "[5]": {"assay": "cytotoxicity toward NIH3T3 fibroblasts, dose response, counter-screen, cell-based, ATP luminescence, mouse fibroblasts (AID 2010);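 further: cells exposed to compound for about 90 hours before reading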", "assay_type": "functional"}, "INS1": {"tested_on": "INS1", "assay": "beta cell apoptosis inhibitors, cytokine rescue, dose response, luminescence, retest (AID 449756);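 further: cell death triggered by IL-1 beta plus TNF-alpha plus IFN-gamma mixture; protective hits raise ATP signal compared with cytokine alone wells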", "assay_type": "functional, cell-based", "conditions": "Rattus norvegicus"}, "[6]": {"assay": "inhibitors of intracellular T. cruzi replication, confirmation, NIH3T3 host cells, beta-gal luminescence (AID 2044);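 further: luminescent beta-galactosidase reporter signal from transgenic T. cruzi replicating inside host cells; inhibitors lower the luminescence signal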", "assay_type": "functional, cell-based"}, "[7]": {"assay": "cytotoxicity in HEK-293T cells, dose response, cytotoxicity control for BCR NF-kB inhibitor project, luminescence, B-cell screen hits (AID 489021);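 further: HEK-293T cells carrying an NF-kB luciferase reporter; cells exposed to compound for about 14 hours before viability readout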", "assay_type": "functional, cell-based"}, "[8]": {"biological_target": "Acyl-homoserine lactone acylase PvdQ (Pseudomonas aeruginosa (strain LESB58), UniProt Q9I194)", "sequence (Q9I194 24-193 limits assumed)": "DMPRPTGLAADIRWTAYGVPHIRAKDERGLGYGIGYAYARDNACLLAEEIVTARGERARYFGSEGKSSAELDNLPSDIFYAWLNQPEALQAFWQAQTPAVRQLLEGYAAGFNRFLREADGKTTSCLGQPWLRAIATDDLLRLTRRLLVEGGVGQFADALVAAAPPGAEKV", "sequence (Q9I194 217-762 limits assumed)": "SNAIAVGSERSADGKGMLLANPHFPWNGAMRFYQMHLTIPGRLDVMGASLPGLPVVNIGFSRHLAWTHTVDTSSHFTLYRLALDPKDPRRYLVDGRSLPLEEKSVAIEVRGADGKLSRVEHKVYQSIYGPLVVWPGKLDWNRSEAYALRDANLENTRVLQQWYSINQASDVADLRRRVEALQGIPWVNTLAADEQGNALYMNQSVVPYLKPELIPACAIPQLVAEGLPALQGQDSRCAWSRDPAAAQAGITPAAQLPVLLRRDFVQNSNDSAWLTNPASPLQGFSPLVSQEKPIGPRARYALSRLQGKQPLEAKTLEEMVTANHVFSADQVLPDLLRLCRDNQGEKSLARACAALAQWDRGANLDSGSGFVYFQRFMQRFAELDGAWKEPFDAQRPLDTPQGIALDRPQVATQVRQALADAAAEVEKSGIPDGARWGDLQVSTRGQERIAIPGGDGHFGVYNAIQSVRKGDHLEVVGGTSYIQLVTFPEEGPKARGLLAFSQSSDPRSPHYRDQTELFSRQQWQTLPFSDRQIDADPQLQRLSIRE", "assay": "P. aeruginosa PvdQ acylase inhibitors, dose response, biochemical, fluorescence, plate reader and imaging, cherry-picks (AID 493231)"}, "[9]": {"biological_target": "Lysosomal acid glucosylceramidase (Homo sapiens, UniProt P04062)", "sequence (P04062 whole entry)": "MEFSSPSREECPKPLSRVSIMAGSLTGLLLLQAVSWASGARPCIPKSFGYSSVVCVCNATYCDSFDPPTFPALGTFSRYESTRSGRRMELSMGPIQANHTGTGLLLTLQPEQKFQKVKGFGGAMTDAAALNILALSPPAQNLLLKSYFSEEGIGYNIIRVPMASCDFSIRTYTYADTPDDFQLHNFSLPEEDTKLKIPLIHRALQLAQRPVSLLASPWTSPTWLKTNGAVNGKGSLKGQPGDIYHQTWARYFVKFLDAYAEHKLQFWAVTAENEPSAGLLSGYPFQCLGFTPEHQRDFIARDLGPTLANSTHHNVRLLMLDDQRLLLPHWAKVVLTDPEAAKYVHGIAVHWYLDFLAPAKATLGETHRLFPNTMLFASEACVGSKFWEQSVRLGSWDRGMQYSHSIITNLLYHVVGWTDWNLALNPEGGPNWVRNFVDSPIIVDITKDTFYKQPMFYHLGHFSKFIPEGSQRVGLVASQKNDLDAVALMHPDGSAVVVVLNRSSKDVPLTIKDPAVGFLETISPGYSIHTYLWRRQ", "assay": "Dose response cell-based high throughput screening assay to identify enhancers of beta-glucosidase activity. [Related pubchem assays: 784 ]", "assay_type": "functional"}, "[10]": {"assay": "A cytotoxicity screen of small molecule inhibitors of the PhoP region in Salmonella typhi identified in the primary screen. [Related pubchem assays: 1850, 1864, 1985 ]", "assay_type": "functional"}},
  "note": "The source made the active and inactive calls.",
  "data": [
    {"smiles": "CCN(CC)c1ccc(/C=C2\\C(=O)NC(=S)N(c3ccc(OC)cc3OC)C2=O)o1", "values": [
      {"measurement": "IC50", "setting": "Insulin-degrading enzyme", "value": "> 6.21 µM (active)"},
      {"measurement": "EC50", "setting": "[1]", "value": "> 150 µM (inconclusive)"},
      {"measurement": "IC50", "setting": "[2]", "value": "> 55.6 µM (not active)"}
    ]},
    {"smiles": "O=C(C1=C(O)C(=O)N(CCN2CCOCC2)C1c1ccc(Cl)cc1)c1cc2ccccc2o1", "note": "(centres undefined)", "values": [
      {"measurement": "IC50", "setting": "[3]", "value": "9.92 µM (active)"},
      {"measurement": "IC50", "setting": "[4]", "value": "> 39.8 µM (not active)"}
    ]},
    {"smiles": "CC(=O)C1=NN(c2ccccc2)C(c2cccs2)N1c1ccc(N(C)C)cc1", "note": "(centres undefined)", "values": [
      {"measurement": "EC50", "setting": "[5]", "value": "> 60 µM (inconclusive)"},
      {"measurement": "AC50", "setting": "INS1", "value": "3.1 µM (active)"},
      {"measurement": "EC50", "setting": "[6]", "value": "0.776 µM (active)"},
      {"measurement": "IC50", "setting": "[7]", "value": "> 80 µM (inactive)"}
    ]},
    {"smiles": "CCOC(=O)/C(C#N)=C/c1ccc(SC)cc1", "values": [
      {"measurement": "AC50", "setting": "[8]", "value": "18.1 µM (active)"}
    ]},
    {"smiles": "CCOc1ccc(-c2noc(-c3ccncc3)n2)cc1OCC", "values": [
      {"measurement": "EC50", "setting": "[9]", "value": "> 10 µM (not active)"}
    ]},
    {"smiles": "Cc1cc(C)c2nc(NC(=O)C3CSC4(C)CCC(=O)N34)sc2c1", "note": "(centres undefined)", "values": [
      {"measurement": "IC50", "setting": "[7]", "value": "> 80 µM (inactive)"}
    ]},
    {"smiles": "O=C(C1CCC1)N1CCN(c2ccc(Cl)cc2)CC1", "values": [
      {"measurement": "AC50", "setting": "[8]", "value": "13.5 µM (active)"}
    ]},
    {"smiles": "COc1nccnc1NS(=O)(=O)c1ccc(NC(=S)NC(=O)c2cccnc2)cc1", "values": [
      {"measurement": "EC50", "setting": "[10]", "value": "> 50 µM (active)"}
    ]}
  ]
}
